From US12281080B2, “Quinoline-based compounds and methods of inhibiting CDK8/19” (University of South Carolina, priority 2018, dated 2025)

Key:
Test in all cases: KINOMEscan scanMAX
Assay type in all cases: binding
Details in all cases: 2000 nM; read-out: Percent Control
[1] = target: ABL1(E255K)-phosphorylated (Homo sapiens (Human), UniProt P00519, E255K)
[2] = target: ABL1(Q252H)-nonphosphorylated (Homo sapiens (Human), UniProt P00519, Q252H)
[3] = target: ACVR1B (Homo sapiens (Human), UniProt P36896)
[4] = target: ACVR2B (Homo sapiens (Human), UniProt Q13705)
[5] = target: CHEK1 (Homo sapiens (Human), UniProt O14757)
[6] = target: EGFR(E746-A750del) (Homo sapiens (Human), UniProt P00533, DEL746-750)
[7] = target: EGFR(L747-E749del, A750P) (Homo sapiens (Human), UniProt P00533, A750P/DEL747-749)
[8] = target: EPHA6 (Homo sapiens (Human), UniProt Q9UF33)
[9] = target: ERK1 (MAPK3) (Homo sapiens (Human), UniProt P27361)
[10] = target: FES (Homo sapiens (Human), UniProt P07332)
[11] = target: FLT3(D835H) (Homo sapiens (Human), UniProt P36888, D835H)
[12] = target: FLT3(K663Q) (Homo sapiens (Human), UniProt P36888, K663Q)
[13] = target: FLT3-autoinhibited (Homo sapiens (Human), UniProt P36888)
[14] = target: FLT4 (Homo sapiens (Human), UniProt P35916)
[15] = target: FRK (Homo sapiens (Human), UniProt P42685)
[16] = target: HCK (Homo sapiens (Human), UniProt P08631)
[17] = target: IKK-beta (IKBKB) (Homo sapiens (Human), UniProt O14920)
[18] = target: JNK3 (MAPK10) (Homo sapiens (Human), UniProt P53779)
[19] = target: LATS2 (Homo sapiens (Human), UniProt Q9NRM7)
[20] = target: LOK (STK10) (Homo sapiens (Human), UniProt O94804)
[21] = target: MAP3K15 (Homo sapiens (Human), UniProt Q6ZN16)
[22] = target: MAP3K2 (Homo sapiens (Human), UniProt Q9Y2U5)
[23] = target: MAST1 (Homo sapiens (Human), UniProt Q9Y2H9)
[24] = target: MEK2 (MAP2K2) (Homo sapiens (Human), UniProt P36507)
[25] = target: NEK1 (Homo sapiens (Human), UniProt Q96PY6)
[26] = target: NLK (Homo sapiens (Human), UniProt Q9UBE8)
[27] = target: OSR1 (OXSR1) (Homo sapiens (Human), UniProt O95747)
[28] = target: PAK4 (Homo sapiens (Human), UniProt O96013)
[29] = target: PIK3CA(E545A) (Homo sapiens (Human), UniProt P42336, E545A)
[30] = target: PIK4CB (PI4KB) (Homo sapiens (Human), UniProt Q9UBF8)
[31] = target: PIM2 (Homo sapiens (Human), UniProt Q9P1W9)
[32] = target: PRKCH (Homo sapiens (Human), UniProt P24723)
[33] = target: QSK (KIAA0999) (Homo sapiens (Human), UniProt Q9Y2K2)
[34] = target: ROCK2 (Homo sapiens (Human), UniProt O75116)
[35] = target: RSK1(Kin.Dom.1-N-terminal) (RPS6KA1) (Homo sapiens (Human), UniProt Q15418)
[36] = target: TNK1 (Homo sapiens (Human), UniProt Q13470)
[37] = target: TRKA (NTRK1) (Homo sapiens (Human), UniProt P04629)
[38] = target: TYK2(JH2domain-pseudokinase) (Homo sapiens (Human), UniProt P29597)
[39] = target: YANK3 (STK32C) (Homo sapiens (Human), UniProt Q86UX6)

Chain of PIK4CB (PI4KB) (Q9UBF8 whole entry): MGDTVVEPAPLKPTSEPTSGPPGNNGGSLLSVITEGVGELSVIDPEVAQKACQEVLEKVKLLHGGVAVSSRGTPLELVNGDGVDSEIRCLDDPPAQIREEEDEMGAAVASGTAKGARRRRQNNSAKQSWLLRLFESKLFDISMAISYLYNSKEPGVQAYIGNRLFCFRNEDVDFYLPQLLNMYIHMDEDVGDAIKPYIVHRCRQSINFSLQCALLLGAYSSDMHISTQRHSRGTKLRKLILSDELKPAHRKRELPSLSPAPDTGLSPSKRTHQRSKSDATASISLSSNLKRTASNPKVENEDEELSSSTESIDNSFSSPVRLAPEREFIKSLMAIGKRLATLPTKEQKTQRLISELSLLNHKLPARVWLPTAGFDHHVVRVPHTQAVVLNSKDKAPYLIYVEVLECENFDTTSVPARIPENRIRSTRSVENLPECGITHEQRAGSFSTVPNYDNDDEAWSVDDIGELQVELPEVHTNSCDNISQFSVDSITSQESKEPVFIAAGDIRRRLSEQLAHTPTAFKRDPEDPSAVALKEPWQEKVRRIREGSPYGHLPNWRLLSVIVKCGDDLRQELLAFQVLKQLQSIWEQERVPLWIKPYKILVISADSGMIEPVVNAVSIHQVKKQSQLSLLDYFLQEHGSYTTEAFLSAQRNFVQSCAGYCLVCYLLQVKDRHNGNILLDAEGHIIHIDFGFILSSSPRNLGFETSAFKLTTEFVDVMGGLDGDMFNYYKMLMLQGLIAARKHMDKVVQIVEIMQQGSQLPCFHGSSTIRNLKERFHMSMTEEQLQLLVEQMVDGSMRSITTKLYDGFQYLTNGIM
Chain of EGFR(L747-E749del, A750P) (P00533 other isoform, or with tags, fused parts or gaps A750P/del L747-E749): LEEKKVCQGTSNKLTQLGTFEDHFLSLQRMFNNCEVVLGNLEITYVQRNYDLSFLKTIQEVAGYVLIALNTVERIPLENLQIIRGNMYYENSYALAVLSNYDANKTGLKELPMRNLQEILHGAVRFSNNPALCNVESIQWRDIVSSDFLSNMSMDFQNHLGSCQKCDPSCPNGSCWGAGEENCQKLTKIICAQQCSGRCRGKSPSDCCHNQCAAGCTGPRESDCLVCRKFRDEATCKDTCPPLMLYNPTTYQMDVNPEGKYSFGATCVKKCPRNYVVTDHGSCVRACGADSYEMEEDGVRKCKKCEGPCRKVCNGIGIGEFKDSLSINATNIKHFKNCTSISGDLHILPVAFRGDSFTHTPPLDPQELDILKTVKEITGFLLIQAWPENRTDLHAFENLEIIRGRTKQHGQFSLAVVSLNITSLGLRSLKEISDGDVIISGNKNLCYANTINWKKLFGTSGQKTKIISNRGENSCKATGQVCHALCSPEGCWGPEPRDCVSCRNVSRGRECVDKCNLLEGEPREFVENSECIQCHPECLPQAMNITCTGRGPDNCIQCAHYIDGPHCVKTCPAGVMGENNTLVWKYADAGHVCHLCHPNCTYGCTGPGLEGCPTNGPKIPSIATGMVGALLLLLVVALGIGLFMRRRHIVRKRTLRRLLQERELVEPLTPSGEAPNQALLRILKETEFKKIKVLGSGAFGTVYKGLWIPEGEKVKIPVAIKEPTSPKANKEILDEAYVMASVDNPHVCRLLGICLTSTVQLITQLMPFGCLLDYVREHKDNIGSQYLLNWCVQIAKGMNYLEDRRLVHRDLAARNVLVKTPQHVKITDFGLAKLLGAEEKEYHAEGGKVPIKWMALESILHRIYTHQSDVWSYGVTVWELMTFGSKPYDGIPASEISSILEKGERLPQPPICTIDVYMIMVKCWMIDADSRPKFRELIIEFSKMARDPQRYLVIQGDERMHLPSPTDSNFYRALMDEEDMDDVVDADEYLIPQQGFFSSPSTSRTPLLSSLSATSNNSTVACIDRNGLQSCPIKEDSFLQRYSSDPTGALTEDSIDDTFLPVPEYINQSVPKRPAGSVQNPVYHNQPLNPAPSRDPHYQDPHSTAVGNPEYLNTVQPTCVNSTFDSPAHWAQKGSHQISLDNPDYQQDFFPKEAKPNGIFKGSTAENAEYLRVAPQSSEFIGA
Chain of NEK1 (Q96PY6 whole entry): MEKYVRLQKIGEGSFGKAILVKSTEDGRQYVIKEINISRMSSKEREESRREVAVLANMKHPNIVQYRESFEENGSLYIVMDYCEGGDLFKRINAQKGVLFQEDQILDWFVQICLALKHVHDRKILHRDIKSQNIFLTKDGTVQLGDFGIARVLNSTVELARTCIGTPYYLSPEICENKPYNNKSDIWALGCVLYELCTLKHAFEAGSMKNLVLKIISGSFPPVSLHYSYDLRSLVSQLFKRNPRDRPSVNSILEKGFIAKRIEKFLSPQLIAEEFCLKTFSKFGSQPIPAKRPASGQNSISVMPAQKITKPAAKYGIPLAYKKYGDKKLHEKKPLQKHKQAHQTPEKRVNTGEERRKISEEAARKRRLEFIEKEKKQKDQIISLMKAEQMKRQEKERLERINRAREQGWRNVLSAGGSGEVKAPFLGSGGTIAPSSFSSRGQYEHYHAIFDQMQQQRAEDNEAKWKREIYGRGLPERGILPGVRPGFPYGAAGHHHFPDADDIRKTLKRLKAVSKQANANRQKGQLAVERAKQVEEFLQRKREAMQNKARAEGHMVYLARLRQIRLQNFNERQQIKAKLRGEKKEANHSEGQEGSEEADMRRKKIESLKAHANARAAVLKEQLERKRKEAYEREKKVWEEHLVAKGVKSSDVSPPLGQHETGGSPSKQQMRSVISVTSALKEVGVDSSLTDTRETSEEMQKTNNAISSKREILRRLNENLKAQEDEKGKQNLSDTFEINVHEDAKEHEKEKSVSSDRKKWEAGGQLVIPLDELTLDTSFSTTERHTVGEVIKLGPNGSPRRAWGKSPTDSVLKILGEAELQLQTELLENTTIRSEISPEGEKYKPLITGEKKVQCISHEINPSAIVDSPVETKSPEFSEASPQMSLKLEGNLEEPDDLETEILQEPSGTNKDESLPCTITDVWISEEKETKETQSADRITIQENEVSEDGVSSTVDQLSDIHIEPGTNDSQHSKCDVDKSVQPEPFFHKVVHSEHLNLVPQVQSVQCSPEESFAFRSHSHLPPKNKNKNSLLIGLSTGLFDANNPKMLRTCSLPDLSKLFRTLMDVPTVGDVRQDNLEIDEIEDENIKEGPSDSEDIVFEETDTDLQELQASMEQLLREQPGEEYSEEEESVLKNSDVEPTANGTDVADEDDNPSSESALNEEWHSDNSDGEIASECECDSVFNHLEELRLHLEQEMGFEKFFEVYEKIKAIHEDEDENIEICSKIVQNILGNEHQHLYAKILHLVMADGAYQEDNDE
Chain of TNK1 (Q13470 whole entry): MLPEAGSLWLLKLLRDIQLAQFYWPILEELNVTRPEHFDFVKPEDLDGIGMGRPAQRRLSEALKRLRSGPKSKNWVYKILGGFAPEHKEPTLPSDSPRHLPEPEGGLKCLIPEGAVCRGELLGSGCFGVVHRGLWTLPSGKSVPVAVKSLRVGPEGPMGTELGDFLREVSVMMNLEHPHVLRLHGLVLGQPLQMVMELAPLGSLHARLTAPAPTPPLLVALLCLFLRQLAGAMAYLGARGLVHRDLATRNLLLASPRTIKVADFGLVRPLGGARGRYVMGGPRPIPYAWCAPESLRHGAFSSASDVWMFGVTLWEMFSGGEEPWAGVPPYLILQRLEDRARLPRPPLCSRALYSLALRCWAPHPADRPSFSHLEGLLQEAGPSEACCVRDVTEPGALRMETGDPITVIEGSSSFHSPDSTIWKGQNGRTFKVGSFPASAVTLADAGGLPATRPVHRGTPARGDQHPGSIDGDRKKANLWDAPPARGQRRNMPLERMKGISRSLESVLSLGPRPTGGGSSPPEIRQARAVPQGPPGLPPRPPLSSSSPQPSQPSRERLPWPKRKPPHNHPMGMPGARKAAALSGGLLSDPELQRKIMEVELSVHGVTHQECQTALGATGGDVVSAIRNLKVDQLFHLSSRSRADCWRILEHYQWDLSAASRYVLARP
Chain of MEK2 (MAP2K2) (P36507 whole entry): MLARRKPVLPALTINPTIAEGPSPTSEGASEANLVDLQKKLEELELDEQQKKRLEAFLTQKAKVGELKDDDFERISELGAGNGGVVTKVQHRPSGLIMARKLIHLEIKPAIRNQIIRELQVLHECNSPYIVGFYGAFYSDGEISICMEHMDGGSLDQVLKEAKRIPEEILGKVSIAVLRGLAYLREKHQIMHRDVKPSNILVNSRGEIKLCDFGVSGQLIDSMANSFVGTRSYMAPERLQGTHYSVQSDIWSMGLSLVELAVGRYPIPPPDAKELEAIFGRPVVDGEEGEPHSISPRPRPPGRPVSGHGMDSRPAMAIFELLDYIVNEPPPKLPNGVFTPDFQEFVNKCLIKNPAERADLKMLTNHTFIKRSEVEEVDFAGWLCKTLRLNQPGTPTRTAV
Chain of ERK1 (MAPK3) (P27361 whole entry): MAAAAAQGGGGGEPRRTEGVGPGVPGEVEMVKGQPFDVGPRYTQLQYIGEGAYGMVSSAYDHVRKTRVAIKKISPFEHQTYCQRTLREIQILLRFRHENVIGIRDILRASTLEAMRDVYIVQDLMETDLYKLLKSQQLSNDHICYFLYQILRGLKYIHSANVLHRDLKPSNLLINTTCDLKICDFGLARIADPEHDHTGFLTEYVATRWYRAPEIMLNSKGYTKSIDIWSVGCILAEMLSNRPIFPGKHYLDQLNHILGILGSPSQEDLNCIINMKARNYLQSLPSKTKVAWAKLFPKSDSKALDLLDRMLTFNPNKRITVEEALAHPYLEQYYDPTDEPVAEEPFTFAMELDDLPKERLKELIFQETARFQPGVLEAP
Chain of TYK2(JH2domain-pseudokinase) (P29597 589-875): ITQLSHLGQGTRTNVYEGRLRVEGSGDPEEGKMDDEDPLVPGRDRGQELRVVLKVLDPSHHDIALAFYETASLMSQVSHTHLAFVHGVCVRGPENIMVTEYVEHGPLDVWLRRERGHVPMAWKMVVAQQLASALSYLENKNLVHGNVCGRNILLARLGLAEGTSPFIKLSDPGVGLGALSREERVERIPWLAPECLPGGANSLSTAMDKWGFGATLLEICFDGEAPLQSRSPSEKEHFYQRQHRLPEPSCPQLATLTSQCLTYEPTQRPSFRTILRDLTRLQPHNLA

CN1CCN(C(=O)c2ccc3cc(CCNc4ccnc5ccc(C#N)cc45)ccc3c2)CC1 [compound 6148, 4-((2-(6-(4-methylpiperazine-1-carbonyl)naphthalen-2-yl)ethyl)amino)quinoline-6-carbonitrile]
remaining binding at 2 µM [1]: 93%
remaining binding at 2 µM [2]: 73%
remaining binding at 2 µM [3]: 92%
remaining binding at 2 µM [4]: 90%
remaining binding at 2 µM [5]: 100%
remaining binding at 2 µM [6]: 100%
remaining binding at 2 µM [7]: 77%
remaining binding at 2 µM [8]: 79%
remaining binding at 2 µM [9]: 95%
remaining binding at 2 µM [10]: 81%
remaining binding at 2 µM [11]: 88%
remaining binding at 2 µM [12]: 87%
remaining binding at 2 µM [13]: 88%
remaining binding at 2 µM [14]: 97%
remaining binding at 2 µM [15]: 92%
remaining binding at 2 µM [16]: 96%
remaining binding at 2 µM [17]: 76%
remaining binding at 2 µM [18]: 61%
remaining binding at 2 µM [19]: 88%
remaining binding at 2 µM [20]: 94%
remaining binding at 2 µM [21]: 83%
remaining binding at 2 µM [22]: 68%
remaining binding at 2 µM [23]: 96%
remaining binding at 2 µM [24]: 64%
remaining binding at 2 µM [25]: 84%
remaining binding at 2 µM [26]: 90%
remaining binding at 2 µM [27]: 51%
remaining binding at 2 µM [28]: 97%
remaining binding at 2 µM [29]: 73%
remaining binding at 2 µM [30]: 51%
remaining binding at 2 µM [31]: 81%
remaining binding at 2 µM [32]: 91%
remaining binding at 2 µM [33]: 55%
remaining binding at 2 µM [34]: 71%
remaining binding at 2 µM [35]: 91%
remaining binding at 2 µM [36]: 95%
remaining binding at 2 µM [37]: 53%
remaining binding at 2 µM [38]: 63%
remaining binding at 2 µM [39]: 100%
